Values quoted from earlier work, collected in patent US12213954B2, “Colchicine solution” (PHARMA-DATA RESEARCH AND D[…] MEMBER S.A., priority 2021, dated 2025).

Conditions: pure colchicine

For `COc1cc2c(c(OC)c1OC)-c1ccc(OC)c(=O)cc1[C@@H](NC(C)=O)CC2` [colchicine, (S)—N-(5,6,7,9-tetrahydro-1,2,3,10-tetramethoxy-9-oxo-benzo[a]heptalene-7-yl)acetamide], the “solubility in water, ethanol and chloroform (in words)” value is listed as “well soluble”.
